Reference: patent US20050043515A1, “Tobacco-specific nitrosamine detection assays and reagents” (priority 2003, published 2005)
pIC50: −log10 of the molar value. Where two headings read alike, the source gives them in different places.

Key:
[1] = system: monoclonal antibody 245B5; experiment: Competitive ELISA for NNK using monoclonal antibody 245B5; type: binding, mice; conditions: for % Crossreactivity: NNK amount for 50% inhibition divided by test compound amount, x100
Protocol: (§1) Microtiter plates (Nunc, Maxisorp) were coated by adding 100 μl per well of goat anti mouse IgG Fc specific (Jackson Immunoresearch, West Grove, Pa.) at 2.5 micrograms per milliliter (μg/ml) in phosphate buffered saline (Sigma Chemical Co.) and allowing the solution to sit overnight. The next day, contents were discarded and unreacted sites on the plastic wells were blocked with 300 μl per well of PBT (1% Bovine Serum Albumen (Sigma Chemical Co.), 0.05% Tween 20 (Sigma Chemical Co.) in PBS) for one hour. Contents were again discarded and 100 μl was added per well of a 1/10,000 dilution of hybridoma culture supernatant of monoclonal antibody 245B5. Wells were then incubated one hour at room temperature. Contents of the wells were again discarded and wells washed three times with PBS with 0.05% Tween (PT). Aliquots containing 50 μl of test compounds diluted in PBT were added to the wells in duplicate, followed in less than five minutes by 50 μl of NNK conjugated to horseradish peroxidase (5 μg of horseradish peroxidase/ml). Wells were incubated for one hour at room temperature, after which they were washed six times with PT and excess liquid removed by tapping. A 100 μl aliquot of a peroxide/3,3′,5,5′-tetramethylbenzidine substrate/chromagen (Catalog # TMBUS, Moss Corporation, Pasadena, Md.) was added. Color was read at 650 nm after fifteen minutes in a microplate reader (SpectraMax Plus, Molecular Devices, Sunnyvale, Calif.). The presence of a TSNA reactive with monoclonal antibody 245B5 caused a decrease in the strength of the color signal.
TSNAs were purchased from Toronto Research Chemicals. […] The y-axis is B/Bo, which is the amount of color at 650 nm obtained in the presence of the compound divided by the amount of color obtained when no competing compound is present.
(§2) The affinity of monoclonal antibodies 245B5 and 245J15 to the N-nitroso group on compounds was evaluated using the immunoassay of Example 3 and the immunoassay of Example 4. Parent compounds lacking nitroso groups but having secondary amine groups were run in the immunoassays as previously described. Identical immunoassays were also conducted for compounds that were identical with the parent compounds except that for the addition of the nitroso group to the secondary amine in the compounds. NNN, NAT, and NAB are all examples of TSNAs. N-nitrosopyrollidine may be found in tobacco smoke, but is not a TSNA.

[2] = system: monoclonal antibody 245J15; experiment: Competitive ELISA for total TSNAs using monoclonal antibody 245J15; type: binding, mice
Protocol: as §1
A total TSNA assay was developed for monoclonal antibody 245J15.
Each analyte was obtained from the source identified in Example 3.
as §2

[3] = system: rabbit antisera raised against NNK oxime derivative conjugates; type: binding, New Zealand White Rabbits; conditions: one rabbit; for Crossreactivity at the 50% point: relative to NNK
Protocol: NNK oxime derivatives were prepared and conjugated to KLH and BSA as described in Example 1. The conjugates were diluted in complete Freund's adjuvant to prepare a 1:1 solution of conjugate:adjuvant. New Zealand White Rabbits (6 to 12 months of age) were immunized by injection with the suspension. Rabbits received two booster injections of the same conjugate/adjuvant at one month and two months after initial injection. At three months time, point test bleeds were tested against microtiter plates coated with oxime-derivatized NNK prepared and conjugated to ovalbumen using procedures described in Example 1.
All of these rabbits were used individually to produce competitive assays, as described in Example 3, with the exceptions that a 1:250,000 dilution of antisera in PBT was substituted for the supernatant and the microtiter plates were first coated with goat anti rabbit IgG (Catalog # 115-005-008, Jackson Immunoresearch, West Grove, Pa.) rather than goat anti mouse IgG. All other details were the same.

[4] = 0.5 B/Bo, read-out: 50% Inhibition at: M
[5] = Antibody 245J15, NNK amount for 50% inhibition divided by test compound amount, x100
[6] = Antibody 245J15, read-out: 50% Inhibition at: M
[7] = Table 3, parent compound vs N-nitroso derivative, read-out: 50% Inhibition at
[8] = Table 4, Antibody 245J15, parent compound vs N-nitroso derivative, read-out: 50% Inhibition at

Row | Structure (SMILES) | 50% Inhibition at: Ppm ([1]; 0.5 B/Bo) | pIC50 [1, 4] | 50% Inhibition at: ppm ([2]; Antibody 245J15) | % Crossreactivity [2, 5] | pIC50 [2, 6] | pIC50 [1, 7] | pIC50 [2, 8] | further results
1 | CN(N=O)C(CCC=O)c1cccnc1 (centres unmarked) [NNA, 4-(methylnitrosamino)4-(3-pyridyl)butanal] | 18.00 Ppm | 4.06 | 0.56 ppm | 10.8% | 5.57 |  |  | % Crossreactivity [1]: 0.0075%
2 | C1=CCC(c2cccnc2)NC1 (centres unmarked) [Anatabine] | 311.06 Ppm | 2.72 | 8.3 ppm | 0.7% | 4.28 | 2.72 | 4.28 | % Crossreactivity [1]: 0.0004%
3 | O=C1CCCN1 [2-Pyrrolidinone] |  |  | 2594 ppm | 0.002% | 1.52 |  |  | 
4 | CCCCNCCCC [Dibutylamine] |  |  |  |  |  | < 1.30 | < 1.30 | 
5 | OC[C@@H]1CCCN1 [(S)-(+)-2-Pyrrolidine-methanol] |  |  | 996.7 ppm | 0.006% | 2.00 |  |  | 
6 | C1CCNC1 [Pyrrolidine] |  |  |  |  |  | 1.70 | 1.70 | 
7 | c1ccncc1 [Pyridine] |  |  |  |  |  |  |  | 50% Inhibition at: ppm [2]: 946.9 ppm; % Crossreactivity [2]: 0.006%; pIC50 ([2]; read-out: 50% Inhibition at: M): 1.92
8 | Cl.OC1CCCNC1 (centres unmarked) [3-Hydroxypiperidine hydrochloride] |  |  | 17492.7 ppm | 0% |  |  |  | 
9 | CN1CCCC1c1cccnc1 (centres unmarked) [Nicotine] | 16.88 Ppm | 4.00 | 80.9 ppm | 0.074% | 3.30 |  |  | Crossreactivity at the 50% point [3]: 0.024%; % Crossreactivity ([2]; Antibody 245J15, NNK amount for 50% inhibition divided by test compound amount, x100, listed as Nicotine (Acros)): 0.034%; 50% Inhibition at: ppm ([2]; Antibody 245J15, listed as Nicotine (Acros)): 178.9 ppm; pIC50 ([2]; Antibody 245J15, listed as Nicotine (Acros), read-out: 50% Inhibition at: M): 2.96
10 | CCCCN(CCCC)N=O [N-Nitrosodibutylamine] |  |  |  |  |  | 1.80 | 2.00 | 
11 | c1cncc([C@@H]2CCCN2)c1 [Nornicotine] | >200 Ppm | < 3.00 | 223.1 ppm | 0.027% | 2.82 | < 3.00 | 2.82 | % Crossreactivity [1]: <0.0002%
12 | O=NN1CCCC[C@H]1c1cccnc1 [NAB, N-nitrosoanabasine] | 1.35 Ppm | 5.15 | 0.72 ppm | 8.3% | 5.42 | 5.15 | 5.42 | Crossreactivity at the 50% point [3]: 1.6%
13 | c1cncc([C@@H]2CCCCN2)c1 [Anabasine] | >200 Ppm | < 3.00 | 214.9 ppm | 0.028% | 2.89 | < 3.00 | 2.89 | % Crossreactivity [1]: <0.0002%
14 | OC[C@H]1CCCN1 [(R)-(−)-2-Pyrrolidine-methanol] |  |  | 1898.1 ppm | 0.003% | 1.72 |  |  | 
15 | CN1CCCC1CCO (centres unmarked) [1-Methyl-2-pyrrolidineethanol] |  |  | 1264.4 ppm | 0.005% | 2.01 |  |  | 
16 | CN(CCCC(=O)c1cccnc1)N=O [NNK, 4-(methylnitrosamino)-1-(3-pyridyl)-1-butanone] | 0.00135 Ppm | 8.19 | 0.06 ppm | 100% | 6.54 |  |  | sensitivity at the 50% inhibition point ([3]; 1:250,000 dilution of antisera): 0.1 μg NNK per ml; % Crossreactivity [1]: 100.00%
17 | OC1CCNC1 (centres unmarked) [3-Pyrrolidinol] |  |  | 5373.9 ppm | 0.001% | 1.21 |  |  | 
18 | CN(CCCC(O)c1cccnc1)N=O (centres unmarked) [NNAL, 4-(methylnitrosamino)-1-(3-pyridyl)-1-butanol] | 0.06923 Ppm | 6.48 | 0.05 ppm | 129.6% | 6.66 |  |  | 
19 | O=C(O)C1CCCCN1 (racemic) [DL-Pipecolinic Acid] |  |  | 13630.2 ppm | 0% |  |  |  | 
20 | CN1CCCCC1CO (centres unmarked) [1-Methyl-2-piperidinemethanol] |  |  | 781.4 ppm | 0.008% | 2.22 |  |  | 
21 | O=C(O)C1CCCNC1 (centres unmarked) [Nipecotic Acid] |  |  | 24193.5 ppm |  |  |  |  | 
22 | CN1CCC(O)C1 (centres unmarked) [1-Methyl-3-pyrrolidinol] |  |  | 92.7 ppm | 0.065% | 3.04 |  |  | 
23 | O=NN1CC=CC[C@H]1c1cccnc1 [NAT, N-nitrosoanatabine] | 0.35 Ppm | 5.74 | 0.13 ppm | 46.3% | 6.17 | 5.74 | 6.17 | Crossreactivity at the 50% point [3]: 1.7%
24 | CN1CCCC[C@H]1c1cccnc1 [Methyl Anabasine] | 271.90 Ppm | 2.80 | 30.2 ppm | 0.2% | 3.74 |  |  | % Crossreactivity [1]: 0.0005%
25 | O=NN1CCCC1 [N-Nitrosopyrrolidine] |  |  |  |  |  | 2.52 | 2.30 | 
26 | Cl.OC1CCNCC1 [4-Hydroxypiperidine hydrochloride] |  |  | 12282.5 ppm | 0% | 1.05 |  |  | 
27 | C1CCNCC1 [Piperidine] |  |  | 1300.3 ppm | 0.005% | 1.82 |  |  | 
